Reference: patent US20200222418A1, “USE OF PHENOTHIAZINE DERIVATIVE IN THE TREATMENT OF INFECTION CAUSED BY BACTERIA CARRYING TYPE IV PILI” (priority 2017, published 2020)
“Also recorded” adds a separate entry of the source.

How the values were obtained:
[1] = tested on: N. meningitidis 2C4.3 aggregates; format: cell-based, Neisseria meningitidis; conditions: for dispersion of bacterial aggregates formed in suspension: aggregates pre-formed 2 h, 20 min, Trifluoperazine 10-40 μM, Gentamicin 150 μg/ml, Cefotaxim 20 μg/ml
Method: N. meningitidis 2C4.3 was grown in liquid culture at 10^7 CFU/ml for 2 h to form bacterial aggregates and were treated with increasing concentrations of Trifluoperazine (10 to 40 μM), Gentamicin (150 μg/ml) or cefotaxim (20 μg/ml) for 20 minutes and bacterial aggregates were immediately visualized using a phase-contrast microscope. […] (B) Quantification of the bacterial aggregation was performed using Image J software.
N. meningitidis 2C4.3 wild type strain and the isogenic derivative mutant PilT ([…]PiIT) were grown in liquid culture at 10^7 CFU/ml for 2 h to form bacterial aggregates and then treated with 50 μM Trifluoperazine. Time lapse phase-contrast video microscopy was performed to visualize the effect on bacterial aggregates over time. Images were taken at the indicated time points of the video.
N. meningitidis 2C4.3 was grown in liquid culture at 10^7 CFU/ml for 2 h to form bacterial aggregates and were treated with 30 μM Trifluoperazine for 30 minutes to induce bacterial dispersion or PBS as a control. The medium was replaced to remove the Trifluoperazine and the reformation of bacterial aggregates were visualized overtime using a phase-contrast microscope.
Bacteria were grown in suspension for 2 h then Phenothiazine derivatives were added at the indicated concentrations.
N. meninigitidis 2C4.3 strain was grown in suspension in wells of a 24 well plate, containing 1 ml of DMEM medium supplemented with 10% heat-inactivated fetal calf serum. After 2 h of growth, Trifluoperazine (or control vehicle) was added at various concentrations ranging from 10 to 40 μM for 20 min and the bacterial aggregates were visualized over time using a phase-contrast microscope.
N. meninigitidis 2C4.3 strain was grown in suspension in wells of a 24 well plate, containing 1 ml of DMEM medium supplemented with 10% heat-inactivated fetal calf serum. After 2 h of growth, various concentrations (0.5 to 80 μM) of phenothiazine-derivative compounds or control vehicle (PBS or DMSO) were added to the wells for 30 min and the bacterial aggregates were visualized using a phase-contrast microscope. Were tested phenothiazine-derivative compounds of: • the Piperazine group: Trifluoperazine (Sigma #T8516), Fluphenazine (Sigma #F4765), Prochlorperazine (Sigma #P9178) Perphenazine (Sigma #P6402); • the Piperidine group: Thioridazine (Sigma #T9025) and Mesoridazin (Sigma #M4068); • the Aliphatic group: Chlorpromazine (Sigma #C8138), Promazine (Sigma #P6656), Triflupromazine (Sigma #1686003) and levomepromazine (Sigma #L0500000).

[2] = tested on: Nm2C4.3 microcolonies on HBMEC, human bone marrow endothelial cell line; assay: Dispersion of meningococcal microcolonies on HBMEC (vascular colonisation index); format: cell-based, Neisseria meningitidis; conditions: 30 min, Trifluoperazine 10-40 μM, Gentamicin 150 μg/ml, Cefotaxim 20 μg/ml
Method: Human […] microvascular endothelial cells (HBMEC) were infected with Nm2C4.3 for 1 h 30, treated with Trifluoperazine (10-40 μM) for 30 minutes, before fixation and immunofluorescence analysis using anti-Nm2C4.3 antibody and Alexa Fluor 633 Phalloidin. (A) Representative fluorescence microscopy showing bacterial colony (white dots) formed at the surface of the endothelial cells. (B) Quantification of the bacterial colonization was performed using Image J software.
HBMEC, a human endothelial cell line isolated from […] capillaries (Schweitzer et al., 1997) were grown in Dulbecco's Modified Eagle Medium (DMEM) 4.5 g/L-Glutamax (ThermoFischer) 10% FBS. Cells were grown on Thermanox coverslips coated with gelatin 2% (BD Difco #214340) for 2 days to reach confluency. Cells were then infected with a suspension of Nm2C4.3 (˜10^7 CFU/ml) in DMEM/FBS during 30 minutes to allow bacterial adhesion. Cells were then washed three times with medium to remove non-adherent bacteria and infection was pursued for 1 h 30: adherent bacteria grew at the endothelial cell surface and formed micro-colonies. Trifluoperazine was then added to obtain final concentrations of 10, 20, 30 and 40 μM. After incubation for 30 minutes, cells were washed and fixed in 4% Paraformaldehyde for 10 min, washed three times with PBS, and permeabilized with 0.1% Triton X-100 in PBS for 10 min. Cells were blocked for 30 min with 3% BSA in PBS and were incubated for 2 h with the primary antibodies (Rabbit polyclonal anti-Nm2C4.3 strain, kindly provided by Dr X. Nassif, INEM, Paris). After three washes with PBS, cells were incubated for 1 h with […] anti-rabbit IgG (Jackson ImmunoResearch Laboratories), together with Alexa Fluor 633 Phalloidin (Thermofischer) and DAPI ([…], Sigma Aldrich) to stain Actin and nuclei, respectively. Labelled preparations were mounted in Glycergel media (DAKO) and image acquisitions were performed with a DM16000 microscope (Leica, X40). Quantification was done with ImageJ software (NIH). […]

[3] = tested on: HDMECs infected with Nm2C4.3; assay: Cytoskeleton remodelling and cell junction integrity of infected HDMEC (immunofluorescence); format: cell-based, human; conditions: Gentamicin 150 μg/ml 1 h, Trifluoperazine 50 μM applied after gentamicin
Method: (A) Experimental procedure: HDMEC were infected for 2 h with Nm2C4.3, treated for 1 h with gentamicin (150 μg/ml) and then 15 min with Trifluoperazine (50 μM) (or solvent alone as a control) and left in medium for 1 h before fixation. (B) Upper panels: Representative fluorescence microscopy showing the effect on the endothelial cell cytoskeleton remodelling analysed by immunostaining of Ezrin and Actin. Lower panels: Effect on the endothelial cell junction integrity was analysed by immunostaining of Actin and VE-cadherin. (C) Quantification of the bacterial colonization (upper panel) Ezrin recruitment and cortical actin polymerization at sites of bacterial adhesion (lower panel) was performed using Image J software.
HDMECs were grown in their specific culture medium (Promocell #C-12210) and confluent monolayers were infected with 2C4.3. Briefly, bacteria were precultured in prewarmed cell culture medium for 1 h 30 min at 37° C. 5% CO2. The OD600 was adjusted to 0.1 and HDMECs were then overlaid with bacteria for 30 min (MOI of 100). Unbound bacteria were removed by three washes in cell culture media and infection was allowed to proceed for 1 h at 37° C. 5% CO2. Gentamicin was added at 150 μg/ml for 1 h, then after three washes in cell culture media, Trifluoperazine was applied where mentioned at 50 μM for 20 min. After three washes in cell culture media, cells were allowed to recover for 1 h in cell culture media. At the indicated time, cells were fixed with 4% Paraformaldehyde for 10 min. Immunolabelling was then performed as above described in example 4, using DAPI, Alexa Fluor 633 Phalloidin, Polyclonal antisera raised against Ezrin, obtained from Pr P. Mangeat (CRBM, Montpellier, France) and anti-human VE-Cadherin (eBioscience #BMS158).

CN[C@@H]1[C@@H](O)C(O[C@@H]2[C@@H](O)[C@H](O[C@H]3O[C@H]([C@@H](C)NC)CC[C@H]3N)[C@@H](N)C[C@H]2N)OC[C@]1(C)O (stereo partly drawn) [Gentamicin, (3R,4R,5R)-2-{[(1S,2S,3R,4S,6R)-4,6-diamino-3-{[(2R,3R,6S)-3-amino-6-[(1R)-1-(methylamino)ethyl]oxan-2-yl]oxy}-2-hydroxycyclohexyl]oxy}-5-methyl-4-(methylamino)oxane-3,5-diol]
dispersion of bacterial aggregates formed in suspension [1]: did not significantly induce the dispersion | dispersion of compact meningococcal microcolonies established at the endothelial cell surface [2]: poorly induced the dispersion | Ezrin recruitment and cortical actin polymerization at bacterial adhesion sites [3]: still induced Ezrin recruitment, cortical actin polymerization | VE-cadherin staining / endothelial cell junction integrity [3]: discontinuous distribution of VE-cadherin | bacterial colonies at the endothelial cell surface [3]: reduced the number of colonies

CN1CCN(CCCN2c3ccccc3Sc3ccc(C(F)(F)F)cc32)CC1 [Trifluoperazine]
reversibility of the effect on aggregation upon removal of the drug ([1]; 30 μM for 30 minutes, then medium replaced): reversible | dispersion of bacterial aggregates formed in suspension [1]: induced their dispersion | time after addition within which dispersion of aggregates occurs ([1]; time lapse video microscopy, 50 μM): 10 to 15 min | dispersion of compact meningococcal microcolonies established at the endothelial cell surface [2]: induced their dispersion | Ezrin recruitment and cortical actin polymerization at bacterial adhesion sites [3]: Few Ezrin recruitment | VE-cadherin staining / endothelial cell junction integrity [3]: preserved endothelial cell junction integrity | bacterial colonies at the endothelial cell surface [3]: induced their dispersion; also recorded: induced the dispersion of most of the bacterial colonies
